Measurements taken from patent publication US8206704B2, “Use of GCC ligands” (priority 2003, dated 2012).
Entries after “also recorded” stand apart in the source; their conditions may differ. Read-outs that look alike come from different tables or passages of the source.

Key:
[1] = system: matrix metalloproteinase 9 release from human colorectal cancer cells; test: Release of matrix metalloproteinase 9 (MMP 9 activity, western blot); format: cell-based; settings: ST 1 micromolar
Source text: Preventing the secretion of this digestive enzyme will inhibit the ability of these tumor cells to invade the wall of the intestine. […] ST did this at a concentration of 1 micromolar.

[2] = system: human colorectal cancer cells; test: Actin cytoskeleton organization (confocal microscopy, cell spreading); format: cell-based
Source text: ST prevented human colorectal cancer cells from organizing their actin cytoskeleton. […] The latter is a functional readout of the ability of cells to organize actin. Human colorectal cancer cells treated with ST cannot spread their bodies out in vitro. An inability to organize their actin cytoskeletons will prevent these cells from being able to migrate through tissues to metastasize.

[3] = system: human colorectal cancer cells; test: Association of cells with connective tissue proteins in vitro; format: cell-based; settings: ST at 1 micromolar
Source text: Type IV collagen forms the connective tissue meshwork supporting the lamina propria and specifically serves to trap cells through specific interactions with beta integrins. Cancer cells evade this trap by diminishing their ability to bind to type IV collagen. […] Enhancing this interaction will prevent metastases by trapping cells in the laminapropria underlying epithelial cells in the intestine.

[4] = system: [cGMP]i and intracellular cAMP in T84 cells; test: Cyclic nucleotide (cGMP, cAMP) quantification by ELISA or RIA; format: cell-based, human
Protocol: cGMP and cAMP were quantified in exponentially growing T84 cells (˜60% confluent in 96-well plates) employing ELISA (Amersham Pharmacia) or RIA. In experiments employing ELISA, media was aspirated, reactions were terminated by the addition of a lysis solution (200 μl per well) containing 0.5% dodecyltrimethylammonium bromide, and aliquots (100 μl) from each well were processed for cyclic nucleotide determinations. In experiments employing RIA, reactions were terminated with ice-cold 100% ethanol, and supernatants were separated from pellets by centrifugation and processed for cGMP determinations (8).

[5] = ST as an anticancer agent in vitro; format: cell-based
GCC-bearing cells = test: Pre-clinical cell cycle analysis; format: cell-based; settings: ST alone
[6] = Pharmacokinetics of ST in man by allometric scaling and dosage calculation
Source text: An alternative approach is to provide the patient with continual intravenous dosing of ST, thereby maintaining the cytostatic effect through adjuvant chemotherapy, while minimizing any adverse effects associated with ST. To achieve therapeutic efficacy, the steady state concentration (Css) should be ≧10 EC50.

[7] = system: human T84 colon cancer cells; test: Perforated whole-cell patch-clamp current measurements; format: cell-based
Protocol: The perforated mode of the whole-cell patch-clamp recording was applied to human T84 colon cancer cells. Membrane potential was controlled through the electrical access obtained by membrane perforation induced by amphotericin B (9, 10). The pipette solution supplemented by amphotericin B ([…]) contained: 140 mM KCl, 1 mM MgCl2, 5 mM EGTA, and 20 mM Hepes-KOH (pH 7.3). The bath solution contained (in mM): 136.5 mM NaCl, 5.4 mM KCl, 1.8 mM CaCl2, 0.5 mM MgCl2, 5.5 mM glucose, and 5 mM Hepes-NaOH (pH 7.4). Voltage-clamp recordings were performed with an Axopatch 1-C patch-clamp amplifier (Axon Instruments, Foster City, Calif.) at 31±1° C. using an HCC-100 temperature controller (Dagan Instruments, Minneapolis; ref. 19).

[8] = system: human T84 colon cancer cells; test: as above; format: cell-based; settings: Ca-free solution, n=5
[9] = Pharmacokinetics of ST in rats; format: in vivo, rat; settings: for half-life: rat, in vivo
T84 cells [10] = test: DNA synthesis ([methyl-3H]thymidine incorporation), tumor cell proliferation; format: cell-based, human
Protocol: (§1) T84 (passages 50-70) and SW480 (passage 100-120) human colon carcinoma cells, obtained from the American Type Culture Collection, were maintained at 37° C. (5% CO2) in DMEM/F12 containing 2.5 mM L-glutamine, 100 units/ml penicillin, 100 μg/ml streptomycin, and 10% (vol/vol) FBS.
(§2) Exponentially growing cancer cells (˜60% confluent in 96-well plates) were synchronized by serum starvation in Eagle's minimal essential medium (EMEM) for 48 h, followed by proliferative induction with 10 mM L-glutamine (in EMEM) for 24 h. ST and other agents were added to cells 15 min before 0.2 μCi per well (1 Ci=37 GBq) of [methyl-3H]thymidine, which was added for 3 h, followed by quantification of [3H]thymidine incorporation into DNA (15).

SW480 cells = test: as above; format: cell-based, human; settings: SW480 cells that do not express GC-C, ST 1 μM
Protocol: as §1, §2

T84 cells [11] = test: 45Ca2+ transport (calcium influx); format: cell-based, human
Protocol: Exponentially growing T84 cells (40-80% confluent in 24-well plates) were incubated in media (S-MEM, Life Technologies, Rockville, Md.) containing low (300 μM) CaCl2 to maximize the signal-to-noise ratio for L-cis-diltiazem (L-DLT)-sensitive 45Ca2+ transport determinations. Cells were treated with ST, 8-br-cGMP, and/or L-DLT for the indicated times, followed by the addition of 1 μCi per well 45Ca2+ for the last 15 min. Incubations were terminated by washing four times in cold PBS buffer (145 mM NaCl/5 mM KCl/1 mM MgCl2/10 mM glucose/5 mM Hepes, pH 7.4) containing 0.1 mM EGTA, cells were solubilized with cold NaOH (0.1 M), and radioactivity was quantified in 100-μl aliquots.

ST receptors = ST receptors (Homo sapiens, UniProt P25092); settings: about; cited from earlier work
Chain of ST receptors (P25092 24-1073): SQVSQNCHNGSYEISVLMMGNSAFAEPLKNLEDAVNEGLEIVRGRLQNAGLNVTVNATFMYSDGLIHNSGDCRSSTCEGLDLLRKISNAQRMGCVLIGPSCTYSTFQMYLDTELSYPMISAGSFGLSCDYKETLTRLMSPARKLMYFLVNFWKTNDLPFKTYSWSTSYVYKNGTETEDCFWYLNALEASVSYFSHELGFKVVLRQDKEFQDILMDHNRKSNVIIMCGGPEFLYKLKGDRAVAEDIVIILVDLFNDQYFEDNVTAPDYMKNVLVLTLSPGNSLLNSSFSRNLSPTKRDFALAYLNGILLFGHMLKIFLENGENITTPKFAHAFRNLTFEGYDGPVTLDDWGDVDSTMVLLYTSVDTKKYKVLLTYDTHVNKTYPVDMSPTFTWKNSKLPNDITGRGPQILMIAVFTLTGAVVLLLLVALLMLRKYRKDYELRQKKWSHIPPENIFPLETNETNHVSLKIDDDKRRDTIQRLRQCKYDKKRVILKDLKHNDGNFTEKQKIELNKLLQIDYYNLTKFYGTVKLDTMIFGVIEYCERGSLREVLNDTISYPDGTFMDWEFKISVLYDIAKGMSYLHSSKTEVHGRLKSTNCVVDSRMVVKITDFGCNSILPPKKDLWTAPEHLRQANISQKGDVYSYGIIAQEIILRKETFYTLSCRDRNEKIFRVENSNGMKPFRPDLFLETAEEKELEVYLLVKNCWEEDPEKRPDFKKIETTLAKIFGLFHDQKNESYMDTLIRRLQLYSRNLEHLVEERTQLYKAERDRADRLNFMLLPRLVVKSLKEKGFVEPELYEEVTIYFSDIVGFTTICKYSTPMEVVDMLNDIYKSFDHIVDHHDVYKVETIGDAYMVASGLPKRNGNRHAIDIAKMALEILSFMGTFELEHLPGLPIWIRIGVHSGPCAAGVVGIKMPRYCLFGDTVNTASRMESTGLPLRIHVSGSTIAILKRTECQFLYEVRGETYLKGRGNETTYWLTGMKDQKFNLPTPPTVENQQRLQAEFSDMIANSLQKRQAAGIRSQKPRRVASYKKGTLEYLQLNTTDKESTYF

rat colon = settings: L-DLT 200 μM; cited from earlier work

CC(C)C[C@@H]1NC(=O)[C@H](CCC(=O)O)NC(=O)[C@@H]2CSSC[C@@H]3NC(=O)[C@H](C)NC(=O)[C@@H]4CCCN4C(=O)[C@H](CC(N)=O)NC(=O)[C@H](CSSC[C@H](NC(=O)[C@H](Cc4ccc(O)cc4)NC(=O)[C@H](Cc4ccccc4)NC(=O)[C@@H](NC(=O)[C@@H](N)CC(N)=O)[C@@H](C)O)C(=O)N2)NC(=O)[C@H](CSSC[C@@H](C(=O)N[C@@H](Cc2ccc(O)cc2)C(=O)O)NC(=O)CNC(=O)[C@H](C)NC3=O)NC1=O [ST]
Release of matrix metalloproteinase 9 [1]: inhibited the release
Organization of actin cytoskeleton ([2]; ST 1 micromolar, confocal microscopy): prevented
Cell spreading ([2]; in vitro): cannot spread
Increase of association of cells with laminin or fibronectin [3]: not with laminin or fibronectin
Increase of association of cells with type IV collagen [3]: 2 fold
[cAMP]i accumulation [4]: did not induce [cAMP]i accumulation
[cGMP]i accumulation [4]: induced the accumulation of [cGMP]i; also recorded: independent of [Ca2+]ext
IC50 [5]: 14 nM
Effect on cell cycle (GCC-bearing cells): prolongation of the cell cycle; also recorded: increases equally for all four phases of the cell cycle
Clearance Cl ([6]; 70 kg man, (0.693)(Vd)/(t1/2)): 3.7 mL/min/kg
Volume of distribution Vd of ST ([6]; 70 kg patient, ECF volume): 12 L
t1/2 (α) in man ([6]; calculated): 24 min
Blood half-life for ST (man), α ([6]; man, α phase, allometric scaling theory): 24 min
Blood half-life for ST (man), β ([6]; man, β phase, allometric scaling theory): 667.2 min
t1/2 (α+β) ([6]; used for infusion rate calculation): 31.8 min
Induction of Ca2+-dependent K+ current (KCa), charybdotoxin-sensitive [7]: induced
Reversal potential derived from the induced current-voltage relationship [7]: ~−70 mV
Induction of L-DLT-sensitive membrane current ([7]; 500 nM ST, 2.5 mM 8-br-cGMP): induced membrane current; also recorded: induces an L-DLT-sensitive current
Induced current in the presence of [Ca2+]ext ([7]; control, 1.8 mM CaCl2, n=5): 0.23±0.07 nA
Reversal potential Em in the presence of ST ([7]; n=6): −66.3±3.6 mV
Shift of the reversal potential ΔEm ([7]; ramp pulses, holding potential −40 mV, mean±SEM): −27.5±2.6 mV
Induced current after removal of [Ca2+]ext [8]: 0.02±0.01 nA
Volume of distribution, Vd ([9]; in rats, an ECF agent): 49 mls in rats (An ECF agent)
Clearance ([9]; in rats, primarily renal): 14.9 hr^−1 in rats (Primarily renal)
half-life ([9]; α phase, read-out: Blood half-life for ST (rat), α): 6 min
half-life ([9]; β phase, read-out: Blood half-life for ST (rat), β (converted)): 161 min
Inhibition of DNA synthesis / cell proliferation by ST (T84 cells [10]; T84 cells expressing GC-C, ST 1 μM): inhibits DNA synthesis; also recorded: inhibits cell proliferation
Inhibition of DNA synthesis by ST (SW480 cells): not in tumor cells deficient in GC-C; also recorded: not in those cells that do not express GC-C
Influx of 45Ca2+ into colon cancer cells (T84 cells [11]; ST 1 μM, 20 min, 8-br-cGMP 5 mM, 40 min): induced influx

Guanylin: 15 amino acid peptide with about 50% sequence homology to ST, identified in mammalian intestine (PNTCEICAYAACTGC; guanylin)
Guanylate cyclase activation level, fold less than native ST (ST receptors): 10- to 100 fold

COc1ccc([C@H]2Sc3ccccc3N(CCN(C)C)C(=O)[C@H]2OC(C)=O)cc1 (relative stereo) [L-DLT, L-cis-diltiazem]
Effect on ST-induced 45Ca2+ influx in the rat colon (rat colon): abolished
Effect of L-DLT on ST-induced current and reversal potential shift ([7]; 200 μM L-DLT): reversibly blocked; also recorded: reversed
Reversal potential Em restored by L-DLT in the presence of ST ([7]; n=4): −39.5±5.2 mV
Effect of L-DLT on inhibition of proliferation by 8-br-cGMP (T84 cells [10]; 200 μM L-DLT, 8-br-cGMP 5 mM): blocked
Effect of agent on inhibition of proliferation induced by ST (T84 cells [10]; with ST, 1 μM KT5823, 50 μM RP8pCPT-cGMP, 0.5 μM KT5720, 50 μM RP-cAMPs, 10 μM milrinone, 200 μM L-DLT, 20 μM BAPTA, 50 μM DTR, 1 μM PHE, 100 nM CTX): prevented; also recorded: blocked
Effect of L-DLT on ST- and 8-br-cGMP-induced 45Ca2+ influx (T84 cells [11]; pretreatment 30 min, 250 μM L-DLT): inhibited; also recorded: abolished
